Results on one compound are retold here after patent US10758499B2, “Dermatitis treatment” (Avexxin AS, priority 2012, dated 2020).

Experiment [1] relates to oxazolone-induced delayed-type-hypersensitivity (DTH) responses. Description: oxazolone-induced ear edema model (delayed-type-hypersensitivity) in mice, therapeutic topical treatment. In kind it is in vivo, mice (female BALB/c). The note with it: for Relative oxazolone specific ear swelling, average: topical 1 h and 7 h after challenge, 24 h after challenge, placebo 95%; for Absolute oxazolone specific ear swelling, average: topical on right ear 1 h and 7 h after challenge, measured 24 h after challenge, placebo 217 μm. The protocol: DTH can be induced by skin sensitization with oxazolone, followed by a topical ear challenge with oxazolone 7 days later. This challenge results in development of an inflammatory response in the ear within 24 hours, which is dependent on antigen-specific T cells. The DTH reaction is associated with the recruitment of a variety of inflammatory cells and development of edema. The latter can be measured by quantifying changes in ear thickness before and after ear challenge. The oxazolone-induced ear edema model in mice is therefore a model of delayed contact hypersensitivity that permits the quantitative evaluation of the topical and systemic anti-inflammatory activity of a compound following topical administration. Female mice (6-8 wks—BALB/c) were acclimatization for 7 days in 12 hours light/12 hours dark cycle, at Temperature: 20-24° C., humidity: 55%±10%, on a standard laboratory mouse diet. Day 0: Mice were anesthetized by inhalation of 3-4% isoflurane in a 1:1 mixture of oxygen and medical air. The abdominal skin was shaved to enable topical application of 100 μl 1.5% (w/v) oxazolone in 100% acetone. Day 7: All ears were wiped with ethanol to optimize exposure to oxazolone. Subsequently, the right ear of the sensitized animals were challenged by topical administration of 20 μl (10 μl on each side of the ear) 2.5% (w/v) oxazolone in 100% ethanol. The left ears were treated with 20 μl 100% ethanol. Day 8: After 24 hours, mice were sacrificed and the right ears were collected to enable analysis by (immuno)-histochemistry and/or histology. The vehicle used to carry AVX001 was paraffin. The placebo was paraffin. Approx 20 μl (10 μl on each side of the right ear) of composition is applied to effect the test. 4 groups (8 mice per group) were studied. Group 1: Placebo, 1 hour and 7 hours after challenge Group 2: Compound 0.2 wt %, 1 hour and 7 hours after challenge Group 3: Compound 0.05 wt %, 1 hour and 7 hours after challenge Group 4: Compound 0.01 wt %, 1 hour and 7 hours after challenge Day 7: Ear thickness of both ears was measured directly before the ear-challenge (5 measurements per ear) using a Mitutoyo micrometer (accuracy 0.01 mm). Day 8: 24 Hours after challenge, thickness of left and right ears was measured again. The increase in ear thickness of each ear was calculated by subtracting the mean ear thickness measured on day 7 (before challenge) from the thickness on day 8 (24 hrs after challenge). To determine the oxazolone specific increase in ear thickness, the calculated increase in ear thickness of the left ear was subtracted from that of the right ear. Both absolute (Delta μm) and relative (%) increases in ear thickness were calculated. Increase in ear thickness (Delta μm): Thickness day 8 (μm)−Thickness day 7 (μm) Oxazolone specific increase (Delta μm): Increase right ear (Delta μm)−Increase left ear (Delta μm) Relative increase in ear thickness (%): (Increase in ear thickness (Delta μm)/Thickness day 7 (μm))*100% Relative oxazolone specific increase in ear thickness (%): Relative increase right ear (%)−Relative increase left ear (%) Data of groups was examined by one-way analysis of variance, and individual groups were then compared with Dunnets test or Students t-test. Data was given as mean±SD, if not stated otherwise. Values of p<0.05 were considered significant.

For another experiment, the target named is T1, group IVa PLA2 enzyme (Mus musculus, UniProt P47713).
T1 construct: the right ear biopsies were homogenized in 400 μl lysisbuffer; from tissue; host or cells: mouse ear tissue (in vivo treatment, ear biopsies homogenised)
T1 sequence (P47713 1-748): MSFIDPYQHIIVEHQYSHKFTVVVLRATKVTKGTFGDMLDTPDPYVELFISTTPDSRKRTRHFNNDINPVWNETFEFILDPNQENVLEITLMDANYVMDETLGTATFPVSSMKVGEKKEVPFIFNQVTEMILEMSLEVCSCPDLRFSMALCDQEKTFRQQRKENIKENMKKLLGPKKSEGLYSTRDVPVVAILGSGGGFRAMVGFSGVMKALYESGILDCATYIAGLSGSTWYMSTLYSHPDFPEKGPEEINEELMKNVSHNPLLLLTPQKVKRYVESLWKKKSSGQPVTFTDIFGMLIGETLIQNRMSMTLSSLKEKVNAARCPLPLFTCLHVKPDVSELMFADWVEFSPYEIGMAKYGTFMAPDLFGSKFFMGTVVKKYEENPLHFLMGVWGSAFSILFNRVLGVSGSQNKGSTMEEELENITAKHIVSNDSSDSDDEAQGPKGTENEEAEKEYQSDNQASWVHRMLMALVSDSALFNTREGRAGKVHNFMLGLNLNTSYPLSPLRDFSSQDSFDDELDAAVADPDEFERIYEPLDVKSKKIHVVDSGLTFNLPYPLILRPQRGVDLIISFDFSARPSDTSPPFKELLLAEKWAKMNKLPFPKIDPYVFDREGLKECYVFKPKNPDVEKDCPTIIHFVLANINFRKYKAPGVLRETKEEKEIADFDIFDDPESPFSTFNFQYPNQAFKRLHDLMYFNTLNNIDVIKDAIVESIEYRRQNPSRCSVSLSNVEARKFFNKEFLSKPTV
Description: PGE2 EIA analysis of ear tissue homogenates after treatment. In kind it is in vivo, mice. The following applies: treated versus paraffin placebo ear tissue, right ear biopsies. The method, then: Using a PreCellys homogenisator, the right ear biopsies were homogenized in 400 μl lysisbuffer containing 10 μM indomethasin. The lysate was stored at −80° C. until further processing. PGE2 EIA analysis ear homogenates was performed according to kit protocol (Cayman Chemicals). Plasma samples were diluted 1:60 and 1:180 in EIA buffer. The samples were hybridized over-night (18 hrs, 4° C.). The EIA plates were read using a Multiscan plate reader (Ascent Labsystems, OD550 nm). Ascent software for Multiscan, Version 2.4.1 was used to obtain the data. PGE2 results are shown as mean±SD relative to the paraffin-treated placebo mice (n=5 mice).
Data of groups was examined by one-way analysis of variance, and individual groups were then compared with Dunnets test or Students t-test. Data was given as mean±SD, if not stated otherwise. Values of p<0.05 were considered significant.

SMILES strings stand for the structures.

For the compound `CC/C=C\C/C=C\C/C=C\C/C=C\CC/C=C/CSCC(=O)C(F)(F)F` [AVX001], the “Relative oxazolone specific ear swelling, average” value was 58% in experiment [1] (AVX001 0.01% in paraffin), 43% in experiment [1] (AVX001 0.05% in paraffin) and 42% in experiment [1] (AVX001 0.2% in paraffin). Further, the “Absolute oxazolone specific ear swelling, average” value in experiment [1] (AVX001 0.01% in paraffin) is on record as 134 μm; in experiment [1] (AVX001 0.05% in paraffin), 103 μm; in experiment [1] (AVX001 0.2% in paraffin) it was 94 μm. Moreover, in experiment [1] (all concentrations (0.01%, 0.05%, 0.2%), topical, versus placebo), the “reduction of the oxazolone specific ear swelling (result in words)” value is “statistically significant for all concentrations”. For the same compound, the “reduction in ear tissue PGE2 concentration” value on group IVa PLA2 enzyme amounted to 20%.
